Source: patent publication US11691984B2, “Compounds and methods for DCAF-mediated protein degradation” (The Scripps Research Institute, priority 2018, dated 2023)

Experiments:
BRD4 [1] = biological target: T1, BRD4 (Homo sapiens, UniProt O60885); assay: Western blot of BRD4 in DCAF16−/− HEK293 cells; type: cell-based; conditions: 40 μM KB02-JQ1, 24 hours
T1 construct: degradation of endogenous BRD4 in HEK293T cells; endogenous in cells; host or cells: HEK293T (A10, A16); HEK293 DCAF16+/+ and DCAF16-/- clones (A11)
Experimental: DCAF16 CRISPR knockout HEK293 cell pools were generated by Synthego using nucleofection of Cas9-gRNA ribonucleoprotein (RNP) complex. Editing efficiency 48 h post nucleofection of cell pool was 88%. HEK293 editing cell pools were subjected to single cell sorting in The Flow Cytometry Core Facility at Scripps Research. Individual cell clone was grown in 96-well plate until the cells were confluent. To confirm the editing in DCAF16 gene, genomic DNAs from each clone were extracted using PureLink Genomic DNA Mini Kit (Invitrogen). DCAF16 gene was amplified by PCR and confirmed by DNA sequencing. Indel analysis was performed using ICE analysis from Synthego.
Cells were collected and lysed in 1% NP-40 lysis buffer (25 mM Tris-HCl pH 7.4, 150 mM NaCl, 10% glycerol, 1% Nonidet P-40) with complete protease inhibitor cocktail (Roche). Cells were vortexed and sonicated for 5 pulses (40%, 4). The supernatant was collected after centrifugation at 16,000 g for 10 min at 4° C. Protein concentration was determined by DC assay (Bio-Rad). Protein lysate was heated at 95° C. for 5 min in 1× Laemmli sample buffer. […] The chemiluminescence signal in membrane was recorded after developing in ECL or ECL plus western blotting detection reagent using CL-XPosure film (Thermo Scientific). Relative band intensities were quantified using ImageJ.

BRD4 [2] = biological target: T1, BRD4; assay: Western blot of endogenous BRD4 in HEK293T cells; type: cell-based; conditions: HEK293T, 24 hours
Experimental: (§1) Cells were collected and lysed in 1% NP-40 lysis buffer (25 mM Tris-HCl pH 7.4, 150 mM NaCl, 10% glycerol, 1% Nonidet P-40) with complete protease inhibitor cocktail (Roche). Cells were vortexed and sonicated for 5 pulses (40%, 4). The supernatant was collected after centrifugation at 16,000 g for 10 min at 4° C. Protein concentration was determined by DC assay (Bio-Rad). Protein lysate was heated at 95° C. for 5 min in 1× Laemmli sample buffer. Proteins were resolved by 12% or 14% Novex Tris-Glycine Mini Gels (Invitrogen) and transferred to polyvinylidene fluoride (PVDF) membrane (0.2 Bio-Rad). The membrane was blocked with 5% BSA in TBST buffer (0.1% Tween 20, 20 mM Tris-HCl 7.6, 150 mM NaCl) at room temperature for 1 h. The antibody was diluted with fresh 5% BSA in TBST buffer (1:10000 dilution for FLAG, HA and β-Actin, 1:1000 dilution for others) and incubated with membrane (1 h room temperature for FLAG, HA and β-Actin, overnight 4° C. for others). Membrane was washed three times with TBST buffer and incubated with secondary antibody (1:5000 dilution in 5% BSA in TBST) at room temperature for 1 h. Membrane was washed three times with TBST buffer. The chemiluminescence signal in membrane was recorded after developing in ECL or ECL plus western blotting detection reagent using CL-XPosure film (Thermo Scientific). Relative band intensities were quantified using ImageJ.

FLAG-FKBP12_NLS [3] = biological target: T2, FLAG-FKBP12_NLS (Homo sapiens, UniProt P62942); assay: Western blot of stably expressed FLAG-FKBP12_NLS in MDA-MB-231 cells; type: cell-based; parameters: expressed in transfected cells; host or cells: HEK293T, MDA-MB-231 and HEK293 DCAF16+/+ and DCAF16-/- clones (lentiviral pCDH-CMV-MCS-EF1-Puro); conditions: 1 μM, 8 hours
T2 sequence (P62942 whole entry): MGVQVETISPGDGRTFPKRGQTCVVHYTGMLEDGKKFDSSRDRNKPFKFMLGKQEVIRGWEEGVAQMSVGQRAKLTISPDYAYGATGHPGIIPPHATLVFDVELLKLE
Experimental: FLAG-FKBP12 or FLAG-FKBP12_NLS lentivirus was generated by co-transfection of FLAG-FKBP12 or FLAG-FKBP12_NLS, pCMV-dR8.2 and pMD2.G into HEK 293T cells using FuGene 6 transfection reagent (Promega). Virus-containing medium were collected 48 h after transfection, filtered with […] filter, and used to transduce HEK293T and MDA-MB-231 cells in the presence of 10 μg/mL polybrene (Santa Cruz). 72 h after transduction, puromycin (2 μg/mL) was added to cells. HEK293T cells stably expressing FLAG-FKBP12 or FLAG-FKBP12_NLS were obtained after puromycin selection for 7 days. HEK293T cells stably expressing pCDH empty vector were generated in parallel as control.
as §1

FLAG-FKBP12_NLS [4] = biological target: T2, FLAG-FKBP12_NLS; assay: Polyubiquitination of immunoprecipitated FLAG-FKBP12_NLS in HEK293T cells; type: cell-based; parameters: expressed in transfected cells; host or cells: HEK293T, (lentiviral pCDH-CMV-MCS-EF1-Puro); conditions: KB02-SLF 5 μM, MG132 10 μM, 2 hours
Experimental: as §1, with “ImageJ. […]” for “ImageJ.”

FLAG-FKBP12 = biological target: T3, FLAG-FKBP12 (Homo sapiens, UniProt P62942); assay: Polyubiquitination of immunoprecipitated cytosolic FLAG-FKBP12 in HEK293T cells; type: cell-based; conditions: KB02-SLF 5 μM, MG132 10 μM, 2 hours
T3 construct: expressed in transfected cells; host or cells: HEK293T (lentiviral transduction, puromycin selection)
T3 sequence (P62942 whole entry): as above
Experimental: as §1, with “ImageJ. […]” for “ImageJ.”

CRL(s) = assay: isoTOP-ABPP of ligand-engaged cysteines in HEK293T cells; type: cell-based, human; conditions: 10 μM KB02-SLF, 2 h
Experimental: HEK293T cells were treated with DMSO or 10 μM KB02-SLF for 2 h. Cells were collected and subjected to isoTOP-ABPP sample preparation using the same protocol as described in Backus et al., “Proteome-wide covalent ligand discovery in native biological systems”, Nature 534: 570-574 (2016).

HA-DCAF16 = biological target: T4, HA-DCAF16 (Homo sapiens, UniProt Q9NXF7); assay: Western blot of HA-DCAF16 in DCAF16−/− cells; type: cell-based; conditions: KB02-SLF 1.5 μM, 8 hours
T4 construct: expressed in transfected cells; host or cells: HEK293T (A9); DCAF16-/- HEK293 clones (A20); pRK5 vector
T4 sequence (Q9NXF7 whole entry): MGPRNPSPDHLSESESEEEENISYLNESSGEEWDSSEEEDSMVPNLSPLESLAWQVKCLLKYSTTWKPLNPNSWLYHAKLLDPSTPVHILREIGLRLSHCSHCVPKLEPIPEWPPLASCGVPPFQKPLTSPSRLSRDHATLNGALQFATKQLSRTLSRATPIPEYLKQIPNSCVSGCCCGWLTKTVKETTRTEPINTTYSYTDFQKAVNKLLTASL
Experimental: as §1

[5] = biological target: T5, HA-DCAF16 and FLAG-FKBP12_NLS (Homo sapiens, UniProt P62942+Q9NXF7); assay: Co-immunoprecipitation of HA-DCAF16 with FLAG-FKBP12_NLS (ternary complex) in HEK293T cells; type: cell-based; conditions: MG132 10 μM
T5 construct: expressed in transfected cells; host or cells: HEK293T stably expressing FLAG-FKBP12_NLS, transiently transfected with HA-DCAF16 (pRK5)
T5 sequence (Q9NXF7 whole entry): as above
T5 sequence (P62942 2-108): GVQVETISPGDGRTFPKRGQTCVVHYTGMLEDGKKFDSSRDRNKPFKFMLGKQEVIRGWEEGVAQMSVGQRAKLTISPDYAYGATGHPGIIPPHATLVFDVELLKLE
T5 sequence (Q16531 whole entry partner): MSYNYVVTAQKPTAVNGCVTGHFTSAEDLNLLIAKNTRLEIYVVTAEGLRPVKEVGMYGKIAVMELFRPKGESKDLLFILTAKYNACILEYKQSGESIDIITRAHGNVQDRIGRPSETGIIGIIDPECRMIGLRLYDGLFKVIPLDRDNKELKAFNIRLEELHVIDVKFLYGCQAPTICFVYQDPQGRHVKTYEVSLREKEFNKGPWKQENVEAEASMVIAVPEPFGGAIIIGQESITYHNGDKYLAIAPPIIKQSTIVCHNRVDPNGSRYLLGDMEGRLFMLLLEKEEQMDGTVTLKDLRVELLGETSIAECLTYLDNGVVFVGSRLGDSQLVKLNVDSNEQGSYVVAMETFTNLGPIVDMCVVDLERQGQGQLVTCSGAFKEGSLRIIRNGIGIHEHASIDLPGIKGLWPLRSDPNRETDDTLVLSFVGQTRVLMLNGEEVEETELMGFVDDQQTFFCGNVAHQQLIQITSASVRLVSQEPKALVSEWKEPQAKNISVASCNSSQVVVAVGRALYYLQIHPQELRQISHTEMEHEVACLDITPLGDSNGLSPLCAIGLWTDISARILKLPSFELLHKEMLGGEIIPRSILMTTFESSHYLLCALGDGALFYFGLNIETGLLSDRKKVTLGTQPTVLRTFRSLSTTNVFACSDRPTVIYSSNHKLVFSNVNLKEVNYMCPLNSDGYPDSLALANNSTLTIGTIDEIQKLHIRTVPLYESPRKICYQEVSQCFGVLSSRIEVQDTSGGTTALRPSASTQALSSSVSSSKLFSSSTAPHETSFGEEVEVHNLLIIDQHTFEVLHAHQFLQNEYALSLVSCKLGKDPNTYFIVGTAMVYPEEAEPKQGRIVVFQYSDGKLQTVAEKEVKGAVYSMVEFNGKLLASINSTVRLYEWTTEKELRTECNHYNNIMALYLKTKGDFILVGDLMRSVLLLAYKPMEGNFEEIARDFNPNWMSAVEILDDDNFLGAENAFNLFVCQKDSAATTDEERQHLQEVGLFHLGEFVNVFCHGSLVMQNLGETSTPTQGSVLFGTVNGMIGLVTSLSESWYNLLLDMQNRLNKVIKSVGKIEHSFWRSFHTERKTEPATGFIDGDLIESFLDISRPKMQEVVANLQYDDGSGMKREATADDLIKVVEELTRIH
Experimental: as §1
(§2) Cells were collected and lysed in 1% NP-40 lysis buffer with complete protease inhibitor cocktail on ice for 10 min, followed by 5 pulses of sonication (40%, 4). After centrifugation at 16,000 g for 10 min at 4° C., the supernatant was collected. FLAG affinity gel (20 μL slurry per sample) was incubated with protein lysates at 4° C. for 1 h and washed four times with IP washing buffer. The affinity gel was heated at 95° C. for 10 min in 2× Laemmli sample buffer, followed by western blot analysis.

[6] = test system: HA-DCAF16 and FLAG-FKBP12_NLS; assay: as above; type: cell-based, human; conditions: KB02-SLF, cells pre-treated with MG132
Experimental: as §1, §2

Compound	BRD4 degradation in DCAF16−/− cells (BRD4 [1])	concentration for degradation of BRD4 (BRD4 [2])	degradation of BRD4 (BRD4 [2])	degradation of FLAG-FKBP12_NLS in MDA-MB-231 cells (FLAG-FKBP12_NLS [3])	polyubiquitination of FKBP12_NLS after shRNA knockdown of DCAF16 (FLAG-FKBP12_NLS [4])	polyubiquitination of nuclear FKBP12_NLS (FLAG-FKBP12_NLS [4])	polyubiquitination of cytosolic FKBP12 (FLAG-FKBP12)	strongly engaged (>75%) cysteines on CRL(s) (CRL(s))	degradation of HA-DCAF16 (HA-DCAF16)	co-immunoprecipitation of HA-DCAF16 with FLAG-FKBP12_NLS ([5]; 5 μM, 2 hours)	conversion of HA-DCAF16 to higher molecular weight (HMW) form ([5]; increasing concentrations of KB02-SLF, 2 h)	co-immunoprecipitation of C173S- and C178S-DCAF16 with FKBP12_NLS [6]	co-immunoprecipitation of C177S- and C179S-DCAF16 with FKBP12_NLS [6]
Cc1sc2c(c1C)C(c1ccc(Cl)cc1)=N[C@@H](CC(=O)NCCOCCOCCNC(=O)COc1ccc3c(c1)CCCN3C(=O)CCl)c1nnc(C)n1-2 [KB02-JQ1, (S)-2-((1-(2-chloroacetyl)-1,2,3,4-tetrahydroquinolin-6-yl)oxy)-N-(2-(2-(2-(2-(4-(4-chlorophenyl)-2,3,9-trimethyl-6H-thieno[3,2-f][1,2,4]triazolo[4,3-a][1,4]diazepin-6-yl)acetamido)ethoxy)ethoxy)ethyl)acetamide]	substantially blocked	20 to 40 µM	promoted, in a concentration-dependent manner, the degradation of BRD4										
CCC(C)(C)C(=O)C(=O)N1CCCC[C@H]1C(=O)O[C@H](CCc1ccc(OC)c(OC)c1)c1cccc(NC(=O)CCOCCOCCNC(=O)COc2ccc3c(c2)CCCN3C(=O)CCl)c1 [KB02-SLF, (R)-1-(3-(3-(2-(2-(2-((1-(2-chloroacetyl)-1,2,3,4-tetrahydroquinolin-6-yl)oxy)acetamido)ethoxy)ethoxy)propanamido)phenyl)-3-(3,4-dimethoxyphenyl)propyl (S)-1-(3,3-dimethyl-2-oxopentanoyl)piperidine-2-carboxylate]				degrades FLAG-FKBP12_NLS	abolished KB02-SLF-induced polyubiquitination of FKBP12_NLS	induced polyubiquitination of nuclear FKBP12_NLS	not cytosolic FKBP12	cysteines were not observed on CRL(s) that were strongly engaged (>75%)	degradation of HA-DCAF16 was not observed	HA-DCAF16 and DDB1 co-immunoprecipitated with FLAG-FKBP12_NLS	Only a modest fraction of HA-DCAF16 was converted to this HMW	co-immunoprecipitated with FKBP12_NLS in KB02-SLF-treated cells	not C177S- and C179S-DCAF16
